Assay results reported in publication PMC6792352, “Limited Chemical Structural Diversity Found to Modulate Thyroid Hormone Receptor in the Tox21 Chemical Library” (Environmental Health Perspectives, 2019).
Structures can show the parent of a compound that is named as a salt.

test: in vitro; conditions: rat, gh3-tre-luc cells, AC50 (uM) modified / 1000

SMILES | CC50 at 24 h [µM]
O=C(NO)C1(NS(=O)(=O)c2ccc(Oc3ccc(F)cc3)cc2)CCOCC1 [CP-544439] | > 90
CC(=O)OCc1ccco1 [Furfuryl acetate] | > 90
COC(=O)[C@H]1[C@H]2C[C@@H]3c4[nH]c5cc(OC)ccc5c4CCN3C[C@H]2C[C@H](OC)[C@@H]1OC [Metoserpate hydrochloride] | > 50
CC(C)(C)NC(=O)[C@H]1CC[C@H]2[C@@H]3CC=C4C=C(C(=O)O)CC[C@]4(C)[C@H]3CC[C@]12C [Epristeride] | > 50
CCC[C@@]1(CCc2ccccc2)CC(O)=C([C@H](CC)c2cccc(NS(=O)(=O)c3ccc(C(F)(F)F)cn3)c2)C(=O)O1 [Tipranavir] | > 50
Cc1cc2nc(N)sc2cc1C [2-Amino-5,6-dimethylbenzothiazole] | > 90
CNc1ccc([N+](=O)[O-])cc1 [N-Methyl-4-nitroaniline] | 54.8
Clc1cc(Cl)nc(Cl)n1 [2,4,6-Trichloropyrimidine] | > 90
C=C1CC[C@@]2(O)[C@H]3Cc4ccc(O)c5c4[C@@]2(CCN3CC2CC2)[C@H]1O5 [Nalmefene] | > 50
Cc1[nH]cnc1CN1CCc2c(c3ccccc3n2C)C1=O [Alosetron hydrochloride] | > 50
C[C@H](Cc1ccc(OCC(=O)O)cc1)NC[C@H](O)c1csc(C(F)(F)F)n1 [CP-114271] | > 90
C=Cc1ccc(C(C)(C)C)cc1 [4-tert-Butylstyrene] | > 90
CC(=O)OCc1ccc2c(c1)OCO2 [Piperonyl acetate] | > 90
C[N+]1(C)CCN(CC(O)(c2ccccc2)C2CCCCC2)CC1 (stereo not shown) [Hexocyclium] | > 50
O=C(CS)Nc1ccccc1 [Thioglycolic acid anilide] | 33.8
O=[N+]([O-])c1cccc(S(=O)(=O)O)c1 [Sodium 3-nitrobenzenesulfonate] | > 90
CCCCOCCOCCOC(=O)CCCCC(=O)OCCOCCOCCCC [Bis[2-(2-butoxyethoxy)ethyl] adipate] | > 90
NNC(=O)CCCCC(=O)NN [Hexanedihydrazide] | > 90
Fc1ccc(C(c2ccc(F)cc2)N2CCN(C/C=C/c3ccccc3)CC2)cc1 [Flunarizine] | 12.3
COc1ccccc1N [2-Methoxyaniline hydrochloride] | > 90
ONc1ccccc1 [N-Phenylhydroxylamine] | > 100
OCC=CCO [2-Butene-1,4-diol] | > 90
C=CC(=O)OCCOCCOCC [2-(2-Ethoxyethoxy)ethyl prop-2-enoate] | > 90
CC(=O)OC(OC(C)=O)c1ccc([N+](=O)[O-])o1 [5-Nitro-2-furanmethanediol diacetate] | 14

SMILES | CC50 at 24 h [µM]
CN1CCN(C(c2ccccc2)c2ccccc2)CC1 [Cyclizine hydrochloride] | > 20
[O-][S+](c1cc(Cl)cc(Cl)c1O)c1cc(Cl)cc(Cl)c1O [Bithionoloxide] | 46
COc1cccc2c1C(=O)c1c(O)c3c(c(O)c1C2=O)C[C@@](O)(C(=O)CO)C[C@@H]3O[C@H]1C[C@H](N)[C@H](O[C@@H]2CCCCO2)[C@H](C)O1 [Pirarubicin] | 1.64
CS(=O)(=O)NC(=O)CCC/C=C\C[C@H]1C(=O)C[C@@H](O)[C@@H]1/C=C/[C@@H](O)COc1ccccc1 [Sulprostone] | > 50
CCCCC(=O)N(Cc1ccc(-c2ccccc2-c2nnn[nH]2)cc1)[C@H](C(=O)O)C(C)C [Valsartan] | > 50
CC[N+](C)(CC)CC [N,N-Diethyl-N-methylethanaminium chloride] | > 90
O=C(C(=O)c1ccc(Br)cc1)c1ccc(Br)cc1 [4,4'-Dibromobenzil] | > 30
CCC(C(=O)NC(N)=O)c1ccccc1 (stereo not shown) [Ethylphenylacetylurea] | > 90
CC(=O)O[C@H](CC(=O)[O-])C[N+](C)(C)C [Acetyl-L-carnitine hydrochloride] | > 90
O=C=NCCCCCCN=C=O [1,6-Diisocyanatohexane] | > 90
O=C(O)CCCCCCC(=O)O [Octanedioic acid] | > 90
O=C(O)/C=C/C(=O)O [Fumaric acid] | > 100
ClC(Cl)(Cl)c1ccccc1 [Benzotrichloride] | > 90
O=C(O)[C@H](O)[C@@H](O)[C@H](O[C@@H]1O[C@H](CO)[C@H](O)[C@H](O)[C@H]1O)[C@H](O)CO [Lactobionic acid] | > 20
O=C(O)CC(=O)O [Propanedioic acid] | > 90
CC=C1CC2C=CC1C2 (stereo not shown) [5-Ethylidene-2-norbornene] | > 90
c1ccc(CNCCNCc2ccccc2)cc1 [N,N'-Dibenzylethane-1,2-diamine dihydrochloride] | > 50
CCC(C)SSC(C)CC (stereo not shown) [Dibutan-2-yl disulfide] | > 90
CN(C)CCC(O)(c1ccccc1)c1ccccc1Cl (stereo not shown) [Chlophedianol] | 26
CCNCCO [2-(Ethylamino)ethanol] | > 90
CC1(C)O[C@@H]2C[C@H]3[C@@H]4C[C@H](F)C5=CC(=O)C=C[C@]5(C)[C@@]4(F)[C@@H](O)C[C@]3(C)[C@]2(C(=O)CO)O1 [Fluocinolone acetonide] | > 50
C#C[C@]1(O)CC[C@H]2[C@@H]3CCc4cc(O)ccc4[C@H]3CC[C@@]21C [17alpha-Ethinylestradiol] | > 90
CC(C)(COP(=O)(O)OP(=O)(O)OC[C@H]1O[C@@H](n2cnc3c(N)ncnc32)[C@H](O)[C@@H]1OP(=O)(O)O)C(O)C(=O)NCCC(=O)NCCS (stereo partly shown) [Coenzyme A trilithium dihydrate] | > 50
CCCCC=O [Pentanal] | > 90

SMILES | CC50 at 24 h [µM]
CCN(CC)CCNC(=O)c1ccc(NS(C)(=O)=O)cc1 [Sematilide monohydrochloride] | > 50
Cc1cccc(Nc2cc(Cl)nc(SCC(=O)O)n2)c1C [Pirinixic acid] | > 90
NC(=O)OCCCc1ccccc1 [Phenprobamate] | > 50
O=C1NCCN1CCO [Hydroxyethyl imidazolidinone] | > 100
CN(CCOc1ccc(CC2SC(=O)NC2=O)cc1)c1ccccn1 (stereo not shown) [Rosiglitazone maleate] | > 90
CC(C)(C)[C@]1(O)CCN2C[C@H]3c4ccccc4CCc4cccc(c43)[C@@H]2C1 [Butaclamol hydrochloride] | 22.9
O=P(O)(O)C(O)(Cc1cccnc1)P(=O)(O)O [Risedronate sodium] | > 50
CCCCCCCCCCCC [Dodecane] | > 90
O=CN(CCO)CCO [N,N-Bis(2-hydroxyethyl)formamide] | > 90
Cc1ccc(N(CC2=NCCN2)c2cccc(O)c2)cc1 [Phentolamine] | 45.1
CC1CCC(C(C)CS)CC1S (stereo not shown) [Dipentenedimercaptan] | > 90
COC(=O)c1cc(Cl)cc(Cl)c1 [Methyl 3,5-dichlorobenzoate] | > 90
O=C1CCCCCCCCCCC1 [Cyclododecanone] | > 90
O=C(COc1ccc(Cl)cc1)OCCNC12CC3CC(CC(C3)C1)C2 [Adafenoxate] | > 50
CCCCN1C(=O)c2ccccc2C1=O [2-Butyl-1H-isoindole-1,3(2H)-dione] | > 90
CCCCCCCC[N+](CCCCCCCC)(CCCCCCCC)CCCCCCCC [Tetra-N-octylammonium bromide] | 2.56
C[C@@H]1CC[C@H]2[C@@H](C)C(=O)O[C@@H]3O[C@@]4(C)CC[C@@H]1[C@]32OO4 [Artemisinin] | 4.4
C=C(C)C(=O)OCCC(F)(F)C(F)(F)C(F)(F)C(F)(F)C(F)(F)C(F)(F)F [6:2 Fluorotelomer methacrylate] | > 90
O=C(O)/C=C\C(=O)O [Maleic acid] | > 90
CC(=O)CC(=O)Nc1ccccc1C [N-(2-Methylphenyl)-3-oxobutanamide] | > 90
COc1ccc(CCO)cc1 [4-Methoxybenzeneethanol] | > 90
C=CC[C@]1(O)CC[C@H]2[C@@H]3CCC4=CC(=O)CCC4=C3C=C[C@@]21C [Altrenogest] | > 50

same assay, conditions: rat, gh3-tre-luc cells, AC50 (uM) modified / 1000, Tox21_110001=Tox21_111641; viability, 1 nM T3 present, 24 h

SMILES | CC50 at 24 h [µM]
CCC1(c2ccccc2)CCC(=O)NC1=O (stereo not shown) [Glutethimide] | > 50

same assay, conditions: rat, gh3-tre-luc cells, AC50 (uM) modified / 1000, Tox21_110001=Tox21_111806; viability, 1 nM T3 present, 24 h

SMILES | CC50 at 24 h [µM]
C[C@@H](Cc1ccccc1)NCc1ccccc1Cl [Clobenzorex hydrochloride] | > 50

same assay, conditions: rat, gh3-tre-luc cells, AC50 (uM) modified / 1000, Tox21_110001=Tox21_111872; viability, 1 nM T3 present, 24 h

SMILES | CC50 at 24 h [µM]
CCN(C(C)=O)c1cccc(-c2ccnc3c(C#N)cnn23)c1 [Zaleplon] | > 50

same assay, conditions: rat, gh3-tre-luc cells, AC50 (uM) modified / 1000, Tox21_110001=Tox21_112886; viability, 1 nM T3 present, 24 h

SMILES | CC50 at 24 h [µM]
CN1CC[C@]23c4c5ccc(O)c4O[C@H]2[C@@H](O)CC[C@H]3[C@H]1C5 [Dihydromorphine] | > 90

same assay, conditions: rat, gh3-tre-luc cells, AC50 (uM) modified / 1000, Tox21_110001=Tox21_200065; viability, 1 nM T3 present, 24 h

SMILES | CC50 at 24 h [µM]
C[N+](C)(C)CCCl [Chlormequat chloride] | > 90

same assay, conditions: rat, gh3-tre-luc cells, AC50 (uM) modified / 1000, Tox21_110001=Tox21_200619; viability, 1 nM T3 present, 24 h

SMILES | CC50 at 24 h [µM]
CCCBr [1-Bromopropane] | > 90

same assay, conditions: rat, gh3-tre-luc cells, AC50 (uM) modified / 1000, Tox21_110001=Tox21_200709; viability, 1 nM T3 present, 24 h

SMILES | CC50 at 24 h [µM]
OCC(Br)CBr (stereo not shown) [2,3-Dibromopropanol] | > 90

same assay, conditions: rat, gh3-tre-luc cells, AC50 (uM) modified / 1000, Tox21_110001=Tox21_202224; viability, 1 nM T3 present, 24 h

SMILES | CC50 at 24 h [µM]
Nc1ccc(-c2ccc(N)c(Cl)c2)cc1Cl [3,3'-Dichlorobenzidine] | 26.1

same assay, conditions: rat, gh3-tre-luc cells, AC50 (uM) modified / 1000, Tox21_110001=Tox21_301860; viability, 1 nM T3 present, 24 h

SMILES | CC50 at 24 h [µM]
CC(=O)CC(c1ccc(Cl)cc1)c1c(O)c2ccccc2oc1=O (stereo not shown) [Coumachlor] | > 100
